According to publication PMC11148078, “Potent activity of polymyxin B is associated with long-lived super-stoichiometric accumulation mediated by weak-affinity binding to lipid A” (Nature Communications, 2024):
“Also recorded” adds a separate entry of the source. Bridge positions count the residues as written; N and C are the ends. Square brackets hold non-standard residues; d marks the D form. Peptide text beside a SMILES is read from it. * marks the point of attachment. X1 = CC[C@H](C)CCCCC(=O)*; Dab = NCC[C@H](N)C(=O)O

Columns and labels:
resistant-OMVs = assay: SPR steady-state affinity of reversible binding, resistant-OMVs; design: species or system E. coli; conditions: no pre-saturation; n=4 (polymyxin B), n=3 (PMBN), (SD); read-out: Apparent KD
Protocol: An apparent-KD was measured for the reversible saw-tooth binding profile where polymyxin B was titrated over an OMV surface pre-saturated with the stable binding component (Supplementary Information Fig. S11B). […] No pre-saturation was necessary when using resistant-OMVs or PMBN as these lack the stable component (Fig. 2B, D–F).
Binding and kinetic analysis of SPR-OMV assays
To determine the apparent- KD of the reversible binding event of polymyxin B, single-cycle kinetics were performed as described in Materials and Methods. After OMVs were loaded, 5 µM polymyxin B was injected for 360 sec ([…] flow rate) followed by 120 sec dissociations to saturate the stable-binding population prior to the sample injections. The base-to-peak value of each trace was determined from double-referenced traces (reference 1: - OMVs/ + compound channel; reference 2: + OMVs/ - compound) exported from the Biacore S200 evaluation software into PRISM 9 software. The change in RU with each pulse was plotted over the concentration and the KD determined by fitting a non-linear regression, one-site total function with background parameter set to 0 (GraphPad Prism version 9.3.1 for Mac, GraphPad Software, San Diego, California USA, www.graphpad.com). […]

wt-OMVs = assay: Single-cycle kinetic SPR binding to immobilized wt-OMVs; design: species or system E. coli; conditions: for SPR binding in presence of excess Mg^2+: 32 mM Mg^2+; for SPR binding profile: serial doubling injections, C1 chip
Protocol: Polymyxin B was covalently attached to a C1 chip (Series S Sensor Chip C1, Cytiva) using an amine coupling kit (Cytiva). Cartoon in Fig. 1A created with BioRender (biorender.com). Briefly, equal amounts of reagents N-hydroxysuccinimide and 1-ethyl-3-(3-dimethylaminopropyl) carbodiimide hydrochloride were mixed as per manufacturer’s instructions and immediately added to the gold chip surface for 2 min, washed with distilled deionized water, and dried. Sufficient polymyxin B (1 mM in 1 M HEPES buffer, pH 8) was added to cover the chip surface, incubated at room temperature for 1 h, washed as before, and then incubated with 1 M ethanolamine hydrochloride-NaOH, pH 8.5, for 1 min. The chip surface was washed with water, dried as previously described, immediately loaded into a Biacore S200, and primed with running buffer (described below) to equilibrate the system. C1 chips were used for multiple runs and discarded upon removal from the Biacore S200.
SCK C1-chip SPR experiments were performed in running buffer (Dulbecco’s phosphate-buffered salt solution 1x without calcium or magnesium (Fisher Scientific), pH 7.4, with 0.0005% tween-80 (Sigma) passed through a 0.2 µm filter) unless otherwise indicated. Inclusion of tween-80 prevented loss of polymyxin to the plastics[34] (also see Supplementary Information Methods). For experiments with brevicidine, which was suspended in DMSO, 0.125% DMSO was included in the running buffer. OMVs were diluted from frozen stocks to approximately 20–30 µg/ml protein in the OMV buffer. Capture of OMVs was performed at a low flow rate ([…]) for 300 s over the test channel(s) followed by a 300 s stabilization period. All subsequent steps were at a flow rate of […]. For single cycle kinetics, two-fold dilutions were injected over the channel(s) loaded with OMVs and a reference channel without OMVs for 30 s contact and 480 s dissociation. To regenerate chips, 0.5% SDS (desorb 1, Cytiva) was injected into all channels for 60 s at […] twice, with an extra buffer wash and four carry-over control steps to prevent residual SDS from disrupting the following cycle.
All single-cycle kinetic SPR traces shown were double-referenced (unless indicated) within the Biacore S200 Evaluation Software 1.0, exported as a.txt file, and imported (decimated) into GraphPad Prism (version 9.3.1 for Mac, GraphPad Software, San Diego, CA). For clarity, in some cases individual outlier data points (at buffer transitions) were removed when this would not change the overall data or conclusions.

[1] = test system: polymyxin B-resistant E. coli cells expressing mcr-1; assay: Whole cell SPR, E. coli expressing mcr-1; format: binding
Protocol: Bacterial strains were grown in LB or LB with 0.2% arabinose and carbenicillin (50 μg/mL) to log phase (OD600 approximately 0.4–0.6), centrifuged for 10 min at 2500 × g (3500 rpm using a tabletop centrifuge), and re-suspended in PBS to a final OD600 of approximately 5. SPR on whole bacterial cells was performed and analyzed as described for OMVs on C1 chip, but with an additional carry-over wash prior to the capture. Regeneration of the chip after whole cell binding also required additional steps ([…] flow rate): (1) PBS supplemented with 32 mM MgCl2 for 120 s, (2) 2.5 M NaCl for 30 s, (3) 0.5% SDS (Desorb 1, Cytiva) for 60 s with carry over controls between.

Row | Compound | Kd (resistant-OMVs) [nM] | SPR binding in presence of excess Mg^2+ (wt-OMVs) | SPR binding profile (wt-OMVs) | effect of EDTA on SPR binding (wt-OMVs; EDTA 4 mM, maximum 625 nM, n=3) | SPR binding profile [1]
1 | CC(C)C[C@@H]1NC(=O)[C@@H](Cc2ccccc2)NC(=O)[C@H](CCN)NC(=O)[C@@H](NC(=O)[C@H](CCN)NC(=O)[C@@H](N)[C@@H](C)O)CCNC(=O)[C@H]([C@@H](C)O)NC(=O)[C@H](CCN)NC(=O)[C@H](CCN)NC1=O [PMBN] (H-T[Dab][Dab][Dab][dF]L[Dab][Dab]T; lactam 3-C) | 371 | eliminated | exhibited only weak, saw-tooth binding; also recorded: exclusively produces rapidly reversible binding | – | –
2 | CC[C@H](C)CCCCC(=O)N[C@@H](CCN)C(=O)N[C@H](C(=O)N[C@@H](CCN)C(=O)N[C@H]1CCNC(=O)[C@H]([C@@H](C)O)NC(=O)[C@H](CCN)NC(=O)[C@H](CCN)NC(=O)[C@H](CC(C)C)NC(=O)[C@@H](Cc2ccccc2)NC(=O)[C@H](CCN)NC1=O)[C@@H](C)O [Polymyxin B] (X1-[Dab]T[Dab][Dab][Dab][dF]L[Dab][Dab]T; lactam 4-C (inferred); N-terminus assumed) | 273 | reduced to a weak transient saw-tooth profile without stably bound polymyxin B | dominated by the accumulation of tightly bound polymyxin B and a superimposed saw-tooth profile associated with transient binding | had no effect on polymyxin binding | same polymyxin B binding profiles were observed
